In US20140107015A1, “PHARAMACEUTICAL COMPOSITION FOR PREVENTING OR TREATING HUMAN IMMUNODEFICIENCY VIRUS” (priority 2012, published 2014):
Where two headings read alike, the source gives them in different places.

What was measured:
[1] = molecular target: HIV-1 reverse transcriptase (UniProt P04585); conditions: for reverse transcriptase (RT) activity inhibition: 0.5 mg/ml, FIG. 23
[2] = tested on: C8166 cell lines infected with HIV-1RF; assay: Syncytia formation in C8166 cells infected with HIV-1RF (microscopy, 48 hours); type: cell-based; conditions: 0.5 mg/ml; for number of syncytia formation per well versus untreated control: FIG. 22; for syncytia formation observed with a microscope: FIGS. 18, 19, 21
Procedure: Since then, a degree of syncytia formation was observed by using a microscope.
When the virus infection stimulating cell fusion was analyzed, the syncytia formation was tested in order to investigate the virus infection.
Specifically, 1×10^5 C8166 cells in aliquots of 300 μl were seeded in triplicate to a 48-well plate containing 100 μl of serial dilutions of COS-amino acids (each of chitosan oligomer-amino acid conjugate) in complete RPMI-1640 medium with 5% FBS. After 2 hours of incubation, the cells were infected with 100 μl of stock supernatant of HIV-1RF diluted in complete medium at 200 CCID50 (μg/ml). The plates were incubated at 37° C. for 48 hours and the formation of syncytia was determined microscopically by using an inverted microscope (Leica Microsystems, Germany).
After 2 hours of incubation, the cells were infected with 100 μl of stock supernatant of HIV-1RF diluted in complete medium at 200 CCID50 (μg/ml). The plates were incubated at 37° C. for 48 hours and the formation of syncytia was determined microscopically by using an inverted microscope.

[3] = tested on: C8166 cell lines infected with HIV-1IIIB; conditions: 0.5 mg/ml; for cell viability of HIV-1-infected C8166 cells: 48 hours after HIV-1IIIB infection, MTT, untreated cells = 100%; for cell protecting effect from HIV-1 lysis activity (cell deaths): FIG. 17 and 20
Procedure: And then, the cytotoxicities were measured through MTT assay as time passed.
Since C8166 cell lines were sensitive about lysis effect of HIV-1 replication, the present test evaluated a degree of inhibiting HIV-1 replication based on the sensitivity of C8166 cells at lysis activity due to HIV-1 infection in the present experiment.
Since then, the supernatants of HIV-1IIIB were diluted in complete medium to yield sufficient cytopathicity, and a 100 μl aliquot was added to the wells. Plates were incubated for 24 h, 48 h and 72 h at 37° C. and after each respective incubation, 100 μl of 500 μg/ml MTT solution was added to each well and the plate was incubated for another 4 hours at 37° C. The formazan salt was dissolved in acidified propanol containing 50% DMSO and 4% triton X-100. […] The optical density of formazan formed by untreated cells was taken as 100% of viability.

[4] = tested on: 8E5 and MOLT-4 cell lines; assay: Syncytia formation in co-culture of 8E5 and MOLT-4 cell lines; type: cell-based; conditions: 0.5 mg/ml; for number of syncytia formed with time: FIG. 36; for syncytia formation inhibiting effect compared with control group: positive control AZT-Saq
Procedure: The number of syncytia formed with time was determined. Mock was an experimental group without the sample and AZT-Saq treated with AZT and saquinavir at the same time was used as a positive control.

[5] = tested on: H9 cells infected with HIV-1IIIB; assay: Western blot analysis of p24 protein amount in cells; type: cell-based; conditions: 0.01 to 1 mg/ml; cultured for 4 days; FIG. 34
Procedure: The total cultured cells were lysised in RIPA buffer solution (Sigma-Aldrich Corp., St. Louis, USA), centrifuged, and then the total protein amount of cell lysate was measured by using Lowry method (BioRad Laboratories, Hercules, Calif.). The aliquot supernatant including the same volume of protein (15 μg) was subjected to 10% or 12% SDS-PAGE gel, transferred on a nitrocellulose membrane (Amersham Pharmacia Biotech., England, UK), and blocked in Tris buffered saline containing 0.1% (v/v) Tween-20 (TBS-T) and 5% skim milk powder for at least 1 hour. The membrane was hybridized with mouse anti-p24 monoclonal antibody (Santa Cruz Biotechnology Inc., CA, USA). All the primary monoclonal antibodies were diluted with TBS-T at a ratio of 1:1000. The antibody was detected with Horseradish peroxidase (HRP)-conjugated anti-mouse IgG secondary antibody for 1 hour. The immune reactive protein was detected by using a chemical fluorescence ECL detecting kit (Amersham Pharmacia Biosciences, England, UK) according to the manufacturer's instruction. The western blot bands were visualized by LAS3000® chemiluminescence (Fujifilm Life Science, Tokyo, Japan).

[6] = tested on: CEM-SS cells infected with HIV-1IIIB and HIV-1Saq; conditions: 0.5 mg/ml; FIG. 37
Procedure: Uninfected CEM-SS cells were cultured into individual wells of a 48-well microtiter plate at a density of 3×10^4 cells/well in 400 μl of medium. Diluted HIV-1IIIB and HIV-1Saq stock supernatants (100 μl) were added to appropriate wells to yield a final M.O.I of 1.0 (CCID50). […] After a total of 4 days incubation, in order to measure the amount of p24 production, HIV-1 p24 antigen capture ELISA was performed using the commercial kit (Perkin-Elmer Life Sciences, Boston, Mass.) according to the manufacturer's instruction.

[7] = tested on: H9 cells infected with HIV-1IIIB; assay: RT-PCR analysis of HIV-1 gene (Vif, Env, Gag) expression; type: cell-based; conditions: for Vif, Env, and Gag genes expressions: 0.05, 0.1, 0.5, and 1 mg/ml, 4 days, FIG. 35; for Env gene expression: as treatment concentrations were increased
Procedure: RNA in the total cells cultured was isolated by using Trizol reagent (Invitrogen Co., CA, USA). 2 μg of isolated RNA was reverse-transcripted into cDNA using an oligo-(dT) primer (Promega, Madison, Wis., USA). […] A PCR product was isolated by subjecting an electrophoresis on 1.5% agarose gel at 100 V for 10 minutes. The gel was stained with 1 mg/ml of EtBr, and then photographed under UV illumination by using AlphaEas® gel image analysis software (Alpha Innotech., San Leandro, Calif., USA).

[8] = tested on: TZM-b1 cell infected with HIV-1IIIB; conditions: for HIV-1 replication (gene reporter): 0.05, 0.1, 0.5, and 1 mg/ml, 48 hours, FIG. 38; for HIV-1 replication inhibition relative to the other samples: among COS-D, COS-T, COS-Y, COS-TD, COS-TY
Procedure: Briefly, one day before infection, 5×10^4 TZM-d1 cells were seeded in a 24-well flat, and added with 100 μl of HIV-1IIIB supernatant (100 CCID50 (1 μg/ml)) to infect 50% of the cells. […] After incubation, cells were washed with cold PBS and lysed in 300 μl of lysis buffer (Promega Corp., Madison, Wis.). 20 μl of cell lysate was mixed with 100 μl of luciferase substrate (Promega) and light emission was measured for 10 seconds in a luminometer (Tecan Austria GmbH, Austria). In case of β-galactosidase assay, 100 μl of X-gal substrate was mixed with cell lysate in order to stain the HIV-1 replicated cells and light absorption was measured at the optical density of 550 nm.

[9] = tested on: uninfected C8166 cell lines co-cultured with H9 cells infected with HIV-1IIIB; assay: Syncytia formation in co-culture of uninfected C8166 with H9 infected with HIV-1IIIB; type: cell-based; conditions: for syncytia formation in co-culture over concentrations: 0.2, 0.4, 0.6, 0.8, and 1 mg/ml, 96 hours, FIGS. 32, 33; for syncytia formation inhibition in co-culture compared with positive control group: positive control Dextran sulfate
Procedure: After 96 hours, the formed syncytia was counted by using a microscope (100×). Dextran sulfate having the syncytia formation inhibiting effect was used as a positive control group.

[10] = tested on: C8166 cells infected with HIV-1RF; assay: Syncytia formation inhibition in C8166 infected with HIV-1RF, various concentrations, 96 hours; type: cell-based; conditions: for syncytia formation inhibition over concentrations: 0.2, 0.4, 0.6, 0.8, and 1.0 mg/ml, 96 hours, FIGS. 28, 29
Procedure: Specifically, 1×10^5C8166 cells in aliquots of 300 μl were seeded in triplicate to a 48-well plate containing 100 μl of serial dilutions of COS-N in complete RPMI-1640 medium with 5% FBS. After 2 hours of incubation, the cells were infected with 100 μl of stock supernatant of HIV-1RF diluted in complete medium at 200 CCID50 (μg/ml). The plates were incubated at 37° C. for 96 hours and the formation of syncytia was determined microscopically by using an inverted microscope (Leica Microsystems, Germany). Dextran sulfate having the syncytia formation inhibiting effect was used as a positive control group.
The syncytia formation effect was measured by using the same method as in Example <4-3>.

[11] = molecular target: T1, HIV-1 reverse transcriptase (Human immunodeficiency virus type 1 group M subtype B, UniProt P05959); type: biochemical; conditions: for reverse transcriptase inhibiting activity over concentrations: 0.05, 0.1, 0.25, 0.5, and 1 mg/ml, FIGS. 26, 27
T1 construct: endogenous in cells; host or cells: C8166 and CEM-SS cells infected with HIV-1RF (lysates)

HIV-1 protease [12] = molecular target: T2, HIV-1 protease (Human immunodeficiency virus type 1 group M subtype B, UniProt P05959); assay: Protease assay with protease diluents of C8166 and CEM-SS infected with HIV-1RF, various concentrations; type: biochemical; conditions: 0.05, 0.1, 0.25, 0.5, and 1 mg/ml; FIG. 30
T2 construct: endogenous in cells; host or cells: C8166 and CEM-SS cells infected with HIV-1RF
Procedure: First, the HIV-1 protease inhibiting activity was measured by using the same method as in Example <3-3> except that the protease diluents of two cell lines, C8166 and CEM-SS infected with HIV-1RF.

HIV-1 protease [13] = conditions: 0.5 mg/ml; HIV-1RF/HIV-1IIIB; FIG. 24
Procedure: The amino acid sequence of FRET peptide is made by copying p17/p24 decomposition site by HIV-1 protease on a precursor Gag protein. FRET peptide is decomposed by HIV-1 protease and fluoresces.
Since then, 20 μl of substrate was added to HIV-1 protease that is pre-cultured at the same temperature for the same period and then slowly well-mixed for 30 to 60 second, completely. Since then, the fluorescence was measured at Ex/Em=340 nm/490 nm. The inhibiting rate was estimated as a relatively value to 100 of the fluorescence of the sample without an inhibitor.

[14] = tested on: H9 cells infected with HIV-1IIIB; assay: HIV-1 p24 antigen capture ELISA of culture supernatant; type: cell-based; conditions: various concentrations; FIG. 31
Procedure: In order to measure p24 amount secreted from virus, H9 cells (3×10^6 cells/ml) was cultured at 37° C. for 1 hour in the presence of HIV-1IIIB. The unbound virus was removed from the cells by washing, and re-suspended in the culture medium to be 3×10^5 cells/ml. 1 mL of aliquot was injected to 24-well plate including the medium having the same volume containing COS-E sample. In order to measure the amount of virus secreted in the medium, HIV-1 p24 antigen capture ELISA was performed according to the manufacturer's instruction using a commercial kit (Perkin-Elmer Life Sciences, Boston, Mass.).

[15] = tested on: HIV-1 protease of HIV-1saq; assay: SensoLyte 520 HIV-1 protease FRET assay in saquinavir resistant HIV-1saq; type: biochemical; conditions: saquinavir resistant strain; FIG. 25
From the text: Meanwhile, the present inventors examined HIV-1 protease inhibiting effect using other cell lines of HIV-1. They use HIV-1saq that is a cell line having a resistance to saquinavir.
Saquinavir was used as a positive control group.

[16] = sample 0.5 mg/ml, mean of HIV-1RF and HIV-1IIIB

Compound | number of syncytia formation per well versus untreated control [2] | syncytia formation observed with a microscope [2] | cell viability of HIV-1-infected C8166 cells [3] | HIV-1 replication (gene reporter) [8] | reverse transcriptase (RT) activity inhibition [1] | IC50 (RT inhibition) ([1]; mean of HIV-1RF and HIV-1IIIB) | RT Inhibition (%) [1, 16] | further results
Cc1cn([C@H]2C[C@H](N=[N+]=[N-])[C@@H](CO)O2)c(=O)[nH]c1=O [AZT, zidovudine, reference compound] | – | – | – | – | – | – | – | RT Inhibition (%) ([1]; positive control 2 μM, mean of HIV-1RF and HIV-1IIIB): 82.6%; IC50 ([1]; read-out: IC50 (RT inhibition), mean of HIV-1RF and HIV-1IIIB): 303 µM
Chitosan oligomer-(Threonine-Aspartic acid) [COS-TD] | more significantly inhibited | rarely formed | 94.6% | inhibited the HIV-1 replication depending on the concentration | effectively inhibited | 207 µg/mL | 85.1% | cell protecting effect from HIV-1 lysis activity (cell deaths) [3]: high cell protecting effect; number of syncytia formed with time [4]: not increased; syncytia formation inhibiting effect compared with control group [4]: high syncytia formation inhibiting effect; p24 antigen production (western blot) [5]: inhibited depending on the treatment concentrations; p24 production inhibiting activity with later addition [6]: reduced as time passes; Vif, Env, and Gag genes expressions [7]: reduced depending on the treatment concentrations; Env gene expression [7]: significantly inhibited; HIV-1 replication inhibition relative to the other samples [8]: more effective; syncytia formation in co-culture over concentrations [9]: inhibited depending on the treated concentration; syncytia formation inhibition in co-culture compared with positive control group [9]: more effective
Chitosan oligomer-(Threonine-Tyrosine) [COS-TY] | more significantly inhibited | rarely formed | – | inhibited the HIV-1 replication depending on the concentration | effectively inhibited | – | 85.8% | cell protecting effect from HIV-1 lysis activity (cell deaths) [3]: high cell protecting effect; number of syncytia formed with time [4]: not increased; syncytia formation inhibiting effect compared with control group [4]: high syncytia formation inhibiting effect; p24 antigen production (western blot) [5]: inhibited depending on the treatment concentrations; p24 production inhibiting activity with later addition [6]: reduced as time passes; Vif, Env, and Gag genes expressions [7]: reduced depending on the treatment concentrations; Env gene expression [7]: significantly inhibited; HIV-1 replication inhibition relative to the other samples [8]: more effective; syncytia formation in co-culture over concentrations [9]: inhibited depending on the treated concentration; syncytia formation inhibition in co-culture compared with positive control group [9]: more effective
Chitosan oligomer-Asparagine [COS-N] | significantly inhibited | inhibited | 71.2% | – | – | 954 µg/mL | 41.8% | syncytia formation inhibition over concentrations [10]: depending on the concentration; syncytia formation inhibition compared with positive control group ([10]; positive control Dextran sulfate): more effective
Chitosan oligomer-Aspartic acid [COS-D] | significantly inhibited | inhibited | 78.8% | inhibited the HIV-1 replication depending on the concentration | effectively inhibited | – | 83.4% | reverse transcriptase inhibiting effect at 0.05 mg/ml ([11]; 0.05 mg/ml): no the reverse transcriptase inhibiting effect; reverse transcriptase activity at low concentrations ([11]; 0.05 mg/ml and 0.1 mg/ml): not inhibited; reverse transcriptase inhibiting activity over concentrations [11]: depending on the concentration
Chitosan oligomer-Glutamic acid [COS-E] | significantly inhibited | inhibited | – | – | – | 1036 µg/mL | 32.7% | HIV-1 protease inhibition over concentrations (HIV-1 protease [12]): depending on the concentration; HIV-1 protease inhibition (HIV-1 protease [13]): effectively inhibited; p24 secretion amount (production amount) in culture supernatant [14]: effectively inhibited; HIV-1 protease inhibition in HIV-1saq [15]: effectively inhibited
Chitosan oligomer-Threonine [COS-T] | significantly inhibited | inhibited | 72.3% | inhibited the HIV-1 replication depending on the concentration | – | 761 µg/mL | 55.3% | syncytia formation inhibiting activity at 0.5 mg/ml or more ([10]; 0.5 mg/ml or more, as compared with COS-N): very sharply increased; syncytia formation inhibition over concentrations [10]: depending on the concentration
Chitosan oligomer-Tyrosine [COS-Y] | significantly inhibited | inhibited | – | inhibited the HIV-1 replication depending on the concentration | effectively inhibited | – | 83.5% | reverse transcriptase inhibiting activity over concentrations [11]: depending on the concentration
